Compound: CC[C@@H]1C(=O)N(C)c2cnc(Nc3ccc(C(=O)NC4CCN(C)CC4)cc3OC)nc2N1C1CCCC1 [BI-2536] + COc1cccc2cc(-c3nc([C@H]4CC[C@H](C(=O)O)CC4)n4ncnc(N)c34)[nH]c12 [OSI-027] (partner 0.5 µM)
Assay: relative viability (nuclei count vs DMSO), 5 days (fraction); higher = more cells survive
Conditions: first compound 0.01 µM
Method in brief: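 Lung cancer cell lines in 1536-well plates were dosed by pin tool the day after seeding, either with one drug alone or with a fixed anchor-drug dose plus five library-drug doses (not always all listed) in √10 steps. After 5 days, cells were fixed and their nuclei stained in one step (final 0.05% Triton X-100, 1% formaldehyde, 1 ug/ml Hoechst), then counted on 4× images. Relative viability is the nuclei count in treated wells divided by that in vehicle wells. Values are medians of duplicate plates.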

Cell Line | relative viability
LXF-289 | 0.844
NCI-H23 | 0.551
NCI-H647 | 0.814
CAL-12T | 0.646
NCI-H1651 | 0.686
EPLC-272H | 0.35
NCI-H2228 | 0.576
NCI-H1792 | 0.818
NCI-H1355 | 0.421
NCI-H3122 | 0.944
NCI-H1437 | 0.857
NCI-H1755 | 0.707
NCI-H2023 | 0.398
HCC-15 | 0.723
PC-14 | 0.906
EKVX | 0.717
LC-2-ad | 0.903
NCI-H1563 | 0.811
NCI-H1944 | 0.418
NCI-H1975 | 0.628
RERF-LC-KJ | 0.64
ABC-1 | 0.419
NCI-H358 | 0.758
NCI-H650 | 0.551
PC-3 [JPC-3] | 0.828

Same assay, conditions: first compound 0.03162 µM

Cell Line | relative viability
NCI-H1915 | 0.637
HCC-827 | 0.752
LXF-289 | 0.687
NCI-H23 | 0.508
NCI-H647 | 0.807
CAL-12T | 0.531
NCI-H1651 | 0.758
EPLC-272H | 0.21
NCI-H2228 | 0.437
NCI-H1792 | 0.758
NCI-H1355 | 0.389
NCI-H3122 | 0.16
NCI-H1437 | 0.925
NCI-H1755 | 0.692
NCI-H2023 | 0.406
HCC-15 | 0.699
PC-14 | 0.546
EKVX | 0.731
LC-2-ad | 0.743
NCI-H1563 | 0.792
NCI-H1944 | 0.443
NCI-H1975 | 0.623
RERF-LC-KJ | 0.361
ABC-1 | 0.362
NCI-H358 | 0.477
NCI-H650 | 0.471
PC-3 [JPC-3] | 0.581

Same assay, conditions: first compound 0.1 µM

Cell Line | relative viability
NCI-H1915 | 0.185
HCC-827 | 0.853
LXF-289 | 0.181
NCI-H23 | 0.16
NCI-H647 | 0.529
CAL-12T | 0.188
NCI-H1651 | 0.272
EPLC-272H | 0.165
NCI-H2228 | 0.141
NCI-H1792 | 0.678
NCI-H1355 | 0.206
NCI-H3122 | 0.13
NCI-H1437 | 0.398
NCI-H1755 | 0.324
NCI-H2023 | 0.189
HCC-15 | 0.218
PC-14 | 0.111
EKVX | 0.66
LC-2-ad | 0.247
NCI-H1563 | 0.704
NCI-H1944 | 0.291
NCI-H1975 | 0.515
RERF-LC-KJ | 0.184
ABC-1 | 0.237
NCI-H358 | 0.0848
NCI-H650 | 0.351
PC-3 [JPC-3] | 0.333

Same assay, conditions: first compound 0.3162 µM

Cell Line | relative viability
NCI-H1915 | 0.104
HCC-827 | 0.285
LXF-289 | 0.0418
NCI-H23 | 0.107
NCI-H647 | 0.0918
CAL-12T | 0.144
NCI-H1651 | 0.0807
EPLC-272H | 0.162
NCI-H2228 | 0.124
NCI-H1792 | 0.591
NCI-H1355 | 0.176
NCI-H3122 | 0.17
NCI-H1437 | 0.172
NCI-H1755 | 0.245
NCI-H2023 | 0.0915
HCC-15 | 0.102
PC-14 | 0.032
EKVX | 0.258
LC-2-ad | 0.283
NCI-H1563 | 0.535
NCI-H1944 | 0.134
NCI-H1975 | 0.125
RERF-LC-KJ | 0.188
ABC-1 | 0.236
NCI-H358 | 0.0717
NCI-H650 | 0.19
PC-3 [JPC-3] | 0.179

Same assay, conditions: first compound 1 µM

Cell Line | relative viability
NCI-H1915 | 0.121
HCC-827 | 0.195
LXF-289 | 0.0509
NCI-H23 | 0.107
NCI-H647 | 0.0985
CAL-12T | 0.191
NCI-H1651 | 0.0995
EPLC-272H | 0.137
NCI-H2228 | 0.26
NCI-H1792 | 0.395
NCI-H1355 | 0.189
NCI-H3122 | 0.213
NCI-H1437 | 0.149
NCI-H1755 | 0.275
NCI-H2023 | 0.0907
HCC-15 | 0.122
PC-14 | 0.0346
EKVX | 0.149
LC-2-ad | 0.33
NCI-H1563 | 0.541
NCI-H1944 | 0.148
NCI-H1975 | 0.107
RERF-LC-KJ | 0.198
ABC-1 | 0.19
NCI-H358 | 0.0809
NCI-H650 | 0.144
PC-3 [JPC-3] | 0.16

From the supplement of paper PMC10307832
